Literature values, collected in patent US10392388B2, “Meropenem derivatives and uses thereof” (Kala Pharmaceuticals, Inc., priority 2013, dated 2019).

MIC90 (Pseudomonas aeruginosa): about 8 μg/mL
water solubility: > 1000 µg/mL
SMILES: C[C@@H](O)[C@H]1C(=O)N2C(C(=O)O)=C(S[C@@H]3CN[C@H](C(=O)N(C)C)C3)[C@H](C)[C@H]12 [Meropenem, meropenem]
